Tests used:
Type in all cases: physicochemical
[1] = Moisture fastness test (bleeding, visual inspection); parameters: key: ◯: No bleeding is observed.; Δ: Bleeding is a little observed.; X: Bleeding is seriously observed; settings: 50° C., 90% RH, 150 hours
Method: (§1) The solution of the composition shown in Table 2 below, containing the disazo compound (a dyestuff component) obtained in Example 1 or 2 was prepared and filtered with a 0.45 μm membrane filter to obtain each water-based yellow ink composition for ink-jet printing. Ion-exchange water was used. Water and ammonium hydroxide were added so that the pH of the ink composition is 8 to 10 and the total amount is 100 parts.
(§2) Ink-jet recording is carried out on four kinds of recording materials of plain paper, Professional photo paper (PR-101 (made by Canon Inc.)), Photo glossy film (HG-201 (made by Canon Inc.)) and Paper for PM photo (made by SEIKO EPSON CORP.), using an ink-jet printer (Trade name: BJ S-630 from Canon Inc.) (hereinafter, described as follows, PR: Professional photo paper, HG: Photo glossy film, PM: Paper for PM photo).
(§3) A sample piece having a recorded image printed on the sample piece was left for standing at 24° C., 12 ppm and 60% RH for 2 hours using an ozone weather meter (Model OMS-H made by Suga Test Instruments Co., Ltd.). Densities (D values) before and after the test were measured. (4) A sample piece having a recorded image printed on the sample piece for a moisture fastness test was left for standing at 50° C. and 90% RH for 150 hours in a thermo-hygrostat (made by Ouyou giken sangyou Corp.). Bleeding degrees before and after the test was evaluated by visual inspection.
◯: No bleeding is observed.
Δ: Bleeding is a little observed.
X: Bleeding is seriously observed.
(§4) The results of evaluation of the ink composition prepared using the compound obtained in Example 1 are referred to Evaluation Example 1, and similarly the results of evaluation of the ink composition prepared using the compound obtained in Example 2 are referred to Evaluation Example 2. The compound represented by the following formula (6) and the compound represented by the following formula (7) were used as Comparative Example 1 and Comparative Example 2 and those were evaluated at the same optical density as those of Evaluation Examples 1 and 2 in the composition shown in Table 2.

[2] = Test for ozone fastness (ozone weather meter); settings: 24° C., 12 ppm, 60% RH, 2 hours
Method: as §1, §2, §3, §4

[3] = Test for light fastness (xenon weather meter); settings: 24° C., 60% RH, 50 hours
Method: as §1, §2
The recorded image was irradiated at 24° C. and 60% RH for 50 hours using a xenon weather meter (made by Atlas Corp.). Densities (D values) of the images before and after the irradiation were measured by means of the above calorimetric system.
Residual ratio (%)=D value after irradiation/D value before irradiation
as §4

Row | SMILES | Moisture Fastness ([1]; HG (Photo glossy film)) | Moisture Fastness ([1]; PM (Paper for PM photo)) | Moisture Fastness ([1]; PR (Professional photo paper)) | Moisture Fastness ([1]; Plain Paper) | Ozone Fastness (residual ratio) ([2]; HG (Photo glossy film)) [%] | Ozone Fastness (residual ratio) ([2]; PM (Paper for PM photo)) [%] | Ozone Fastness (residual ratio) ([2]; PR (Professional photo paper)) [%] | Ozone Fastness (residual ratio) ([2]; Plain Paper) [%] | Light Fastness (residual ratio) ([3]; HG (Photo glossy film)) [%] | Light Fastness (residual ratio) ([3]; PM (Paper for PM photo)) [%] | Light Fastness (residual ratio) ([3]; PR (Professional photo paper)) [%] | Light Fastness (residual ratio) ([3]; Plain Paper) [%]
1 | COc1cc(N=Nc2cccc(S(=O)(=O)[O-])c2)ccc1Nc1nc(Nc2ccc(N=Nc3cccc(S(=O)(=O)[O-])c3)cc2OC)nc(N(CCO)CCO)n1.[Na+].[Na+] [Comparative Example 1] | ◯-Δ | ◯-Δ | ◯ | ◯ | 91 | 97 | 89 | 99 | 67 | 86 | 80 | 78
2 | COc1cc(N=Nc2cccc(S(=O)(=O)[O-])c2)ccc1NC(=O)Nc1ccc(N=Nc2cccc(S(=O)(=O)[O-])c2)cc1OC.[Na+].[Na+] [Comparative Example 2] | Δ | X | ◯ | ◯ | 74 | 97 | 82 | 98 | 63 | 94 | 82 | 81

— patent US20060169172A1, “Disazo compound and ink composition containing the same” (priority 2003, published 2006)
